Measured values taken from patent US20050113419A1, “Therapeutic compounds for treating dyslipidemic conditions” (priority 2003, published 2005).

Tests used:
Caco-2 cells = experiment: Cholesterol efflux from cultured human Caco-2 cells; assay type: cell-based; details: 10 μg/ml apoA-I, 24 hours, mean of quadruplicate incubations
Experimental: Caco-2 cells, which are of human origin, were obtained from ATCC and grown in Opti-MEM (Gibco #51985-034) containing 10% FCS, non-essential amino acids (Gibco #11140-050), and vitamins (Gibco # 11120-052). Caco-2 cells were plated at 100,000 cells/well in 48-well plates. After four days the cells had reached confluence, and were then labeled with ^3H-cholesterol by incubation for 24 hours in fresh growth media containing ^3H-cholesterol (10 μCi/mi). Following labeling with ^3H-cholesterol, cells were washed and incubated an additional 24 hours in serum-free media containing 1 mg/ml BSA, to allow for equilibration of ^3H-cholesterol with intracellular cholesterol. Cholesterol efflux was initiated by adding 10 μg/ml apoA-I, with or without compound, in serum-free medium. Compounds were added to cell culture medium from DMSO solutions, and control cells received an equivalent amount of DMSO, never exceeding 0.1%. After 24 hours, media were harvested and cells dissolved in 0.1 M NaOH. Media were briefly centrifuged to remove non-adherent cells, and then aliquots of both the supernatants and the dissolved cells were subjected to liquid scintillation spectrometry to determine radioactivity. Cholesterol efflux is expressed as a percentage, calculated as (^3H-cholesterol in riedium/(^3H-cholesterol in medium+^3H-cholesterol in cells))×100.

human LXRα = molecular target: T1, human LXRα (Homo sapiens, UniProt Q13133); experiment: Radioligand competition binding scintillation proximity assay, LXRα
T1 construct: made in house; host or cells: E. coli (pGEX-KT vector)
T1 sequence (Q13133 164-447): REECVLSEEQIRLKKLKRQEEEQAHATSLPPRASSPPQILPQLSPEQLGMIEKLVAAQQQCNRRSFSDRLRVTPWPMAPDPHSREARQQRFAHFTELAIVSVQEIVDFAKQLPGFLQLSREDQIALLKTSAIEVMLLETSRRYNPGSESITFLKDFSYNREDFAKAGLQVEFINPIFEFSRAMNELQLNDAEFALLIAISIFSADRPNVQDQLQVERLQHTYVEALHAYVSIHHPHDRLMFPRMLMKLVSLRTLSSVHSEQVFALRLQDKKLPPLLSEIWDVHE
Source text: Radioligand Competition Binding Scintillation Proximity Assays

SMILES	% cholesterol efflux (Caco-2 cells; compound 30 nM) [%]	% cholesterol efflux (Caco-2 cells; compound 100 nM) [%]	% cholesterol efflux (Caco-2 cells; compound 300 nM) [%]	% cholesterol efflux (Caco-2 cells; compound 1000 nM) [%]	% cholesterol efflux (Caco-2 cells; compound 3000 nM) [%]	% cholesterol efflux (Caco-2 cells; compound 10000 nM) [%]	Kd (human LXRα) [nM]
CCCc1c(OCCCN(C)C(=O)Nc2ccccn2)ccc2c(C(F)(F)F)noc12 [Compound (18), N′-(2-pyridyl)-N-methyl-N-(3-{[7-propyl-3-(trifluoromethyl)-1,2-benzisoxazol-6-yl]oxy}propyl)urea]	3.4	3.5	4.9	5.7	6.8	5.6	
CCCc1c(OCCCSc2ccc(CC(=O)O)cc2Cl)ccc2c(C(F)(F)F)noc12 [Compound A]							~15
